Test results: US20250313807A1, “SYSTEMS AND METHODS FOR CHARACTERIZATION OF POLYCYSTIC KIDNEY DISEASE” (University of Washington, priority 2022, published 2025)

Key:
PKD organoids [1] = system: PKD organoids
Method: The low height of the channels in the flow devices enabled continuous time lapse imaging of fluorescent molecules without high background fluorescence.
Organoid perfusion in microfluidic chip. Ibidi μ-Slide VI0.4 were coated with 3.0% Reduced Growth Factor Geltrex (Life Technologies) and left at 37° C. overnight to solidify. Kidney organoids (21-40 d) were picked from adhered culture plates, pipetted into the slide channels (2-3 per channel) with RB, and left for 24 hrs at 37° C. to attach. Organoids were distributed randomly within the channel. For the fluidic condition, 60 mL syringes filled with RB were attached to channels using clear tubing (Cole-Parmer, 0.02″ ID, 0.083″ OD). A clamp was used to close off the tubing, and the media in the syringe was changed to 25 mL RB+36.5 μM 2-NBD-Glucose fluorescent glucose (Abcam ab146200). […]
Image/video collection. […] Experiments in microfluidic devices were recorded for 6 hours. […] Cyst growth rate in microfluidic devices was therefore calculated on an individual basis, when each cyst reached its maximal volume, which varied for each sample from 1 hour to 5 hours after the start of the experiment. For longer-term experiments conducted in static 96-well cultures, organoids were imaged at regular intervals (typically 24 hours) and analyzed at the endpoint indicated in the figure graphs. […]

[2] = system: PKD cysts of Pkd1^RC/RC mice; conditions: systemic perfusion with PBS+1 mM NBD-Glucose, kidney tissue sections
Method: To determine whether PKD cysts absorbed glucose in vivo, a methodology was devised to inject mice with NBD glucose and immediately retrieve their kidneys (FIG. 6D).
For perfusion experiments, NBD Glucose was freshly dissolved in PBS to a concentration of 1 mM. Freshly sacrificed Pkd1^RC/RC mice (>8 months old) were incised through the chest and nicked at the vena cava with a 27-gauge needle. Keeping pressure on the vena cava, mice were perfused systemically through the heart with a syringe containing 10 mL of PBS, followed by a second syringe containing 5 mL of either PBS alone (control) or PBS+1 mM NBD-Glucose. Kidneys were harvested immediately and embedded fresh without fixation or sucrose equilibration in OCT. Cryostat-cut mouse kidney sections (20 μm) were mounted in OCT and imaged on a confocal microscope with 10× objective. […] Mice were maintained on a standard diet under standard pathogen-free housing conditions, with food and water freely available.

PKD organoid cysts = assay: cyst expansion in PKD organoids under static conditions (96-well plate); type: cell-based, human
Method: To test functionally whether cyst growth is linked to glucose transport in human organoids, cyst expansion was quantified in increasing concentrations of D-glucose under static conditions (96-well plate).
To test this hypothesis, the effects of pharmacological transport inhibitors on cysts were examined in static conditions.
Kidney organoid differentiation. […] 5,000-20,000 hPSCs per well were placed in each 24-well plate pre-coated with 300 μL of DMEM-F12 containing 0.2 mg/mL Matrigel and sandwiched the following day with 0.2 mg/mL Matrigel in mTeSR1 ([sequence] Technologies, Vancouver) to produce scattered, isolated spheroid colonies. 48 hrs after sandwiching, hPSC spheroids were treated with 12 μM CHIR99021 (Tocris Bioscience) for 36 h, then changed to RB (Advanced RPMI+1× Glutamax+1×B27 Supplement, all from Thermo Fisher Scientific) after 48 hours, and replaced with fresh RB every 3 days thereafter.
Image/video collection. Image collection was performed on a Nikon Ti Live-Cell Inverted Widefield microscope inside of an incubated live imaging chamber supplemented with 5% carbon dioxide. […] For longer-term experiments conducted in static 96-well cultures, organoids were imaged at regular intervals (typically 24 hours) and analyzed at the endpoint indicated in the figure graphs. Phase contrast and GFP (200 ms exposure) images were taken every 5 minutes for a maximum of 12 hours. […]

PKD organoids [3] = assay: live/dead staining (calcein AM/propidium iodide) of cystic organoids; type: cell-based, human; conditions: 24 and 48 hours of treatment

O=C[C@H](Nc1ccc([N+](=O)[O-])c2nonc12)[C@@H](O)[C@H](O)[C@H](O)CO [NBD glucose, 2-(N-(7-Nitrobenz-2-oxa-1,3-diazol-4-yl)Amino)-2-Deoxyglucose]
absorption into organoid proximal and distal tubules (immunofluorescence) (PKD organoids [1]; organoid tubules): absorbed into and accumulated inside organoid proximal and distal tubules | washout from loaded PKD organoids (PKD organoids [1]; switched into media containing only unlabeled glucose, continuous flow): disappeared rapidly | uptake by cyst-lining epithelia and surrounding interstitium [2]: readily took up NBD glucose

CCCN(CCC)S(=O)(=O)c1ccc(C(=O)O)cc1 [probenecid]
effect on cyst growth (PKD organoid cysts; 15 mM D-Glucose, non-toxic doses): no effect on cyst growth

O=C(CCc1ccc(O)cc1)c1c(O)cc(O)cc1O [Phloretin, phloretin]
toxicity by live-dead staining (PKD organoids [3]): no significant toxicity | decrease of cyst size (PKD organoid cysts; 800 μM phloretin, 15 mM glucose): 77%
